Here are results for 59 sequences from the supplement of paper PMC11208160.
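Also: IS621 recombinase and bridge RNA in Escherichia coli cells.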

The data set can be described thus: recombinant barcode read abundance after kanamycin selection (control-corrected) (log10(CPM+1)); higher = more efficient recombination; sequences stand for … in AGTGCAGAGAAAATCGGCCAGTTTTCTCTGCCTGCAGTCCGCATGCCGT…AGATTTATGCAGCGGACTGCCTTTCTCCCAAAGTGATAAACCGGACAGTATCATGGACCGGTTTTCCCGGTAATCCGTATTTGCAAGGTTGGTTTCACT; site = the 11-nt target. The essentials: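 In E. coli, a pooled library matched targets to IS621 bridge RNA target-binding loops and was introduced alongside a donor plasmid. Cells went onto chloramphenicol/ampicillin/kanamycin with 0.1 mM IPTG or onto chloramphenicol/ampicillin LB agar as control, in duplicate. Recombination efficiency, from recombinant-junction barcodes as counts per million, is averaged and control-corrected. It is reported as log10(CPM+1).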
Regarding “CGAATCCCTTGGGTTCTAACCTGTTGCCT (site CGAATCTCTAG)”, the “recombinant barcode read abundance (log10)” value stood at 0.117.
For “CGACATCCTTGGGTTCTAACCTGTTGCCT (site CGACATCCTAG)”, the “recombinant barcode read abundance (log10)” value was found to be 0.214.
As for “CGACATCCTTGGGTTCTAACCTGTTGCCT (site CGAGATCCTAG)”, the “recombinant barcode read abundance (log10)” value was 0.409.
On to “CGACCGACTTGGGTTCTAACCTGTTGCAG (site CGACCGACTCT)”, for which the “recombinant barcode read abundance (log10)” value stood at 0.42.
On to “CGACCGACTTGGGTTCTAACCTGTTGCAG (site CGATCGACTCT)”, for which the “recombinant barcode read abundance (log10)” value is 0.158.
The value for “CGACGTACTTGGGTTCTAACCTGTTGCCT (site CGACGTACTAG)” was 0.151; that for “CGACGTACTTGGGTTCTAACCTGTTGCCT (site CGCCGTACTAG)” was 0.226.
For “CGACGTACTTGGGTTCTAACCTGTTGCCT (site CGGCGTACTAG)”, the “recombinant barcode read abundance (log10)” value was 0.0649.
As to “CGACGTACTTGGGTTCTAACCTGTTGCCT (site CGTCGTACTAG)”, the “recombinant barcode read abundance (log10)” value turned out to be 0.
Consider “CGACTGACTTGGGTTCTAACCTGTTGCCT (site CGACTGACTAG)”, for which the “recombinant barcode read abundance (log10)” value amounted to 0.229.
Consider “CGACTGACTTGGGTTCTAACCTGTTGCCT (site CGTCTGACTTG)”, for which the “recombinant barcode read abundance (log10)” value came out at 0.0517.
In the case of “CGACTGCCTTGGGTTCTAACCTGTTGCGT (site CGAATGTCTAC)”, the “recombinant barcode read abundance (log10)” value was 0.527.
The value for “CGACTGCCTTGGGTTCTAACCTGTTGCGT (site CGACTGCCTAC)” was 2.09; that for “CGAGCAGCTTGGGTTCTAACCTGTTGCCT (site CGAGCAGCTAG)” was 0.395; that for “CGAGCAGCTTGGGTTCTAACCTGTTGCCT (site CGCGCAGCTAG)” was 0.152.
As for “CGAGCAGCTTGGGTTCTAACCTGTTGCCT (site CGGGCAGCTAG)”, the “recombinant barcode read abundance (log10)” value stood at 0.519.
Regarding “CGAGCAGCTTGGGTTCTAACCTGTTGCCT (site CGTGCAGCTAG)”, the “recombinant barcode read abundance (log10)” value was 0.0197.
“CGAGGGTCTTGGGTTCTAACCTGTTGCCT (site CGAGGGACTAG)”: the “recombinant barcode read abundance (log10)” value is 0.0535.
With “CGAGGGTCTTGGGTTCTAACCTGTTGCCT (site CGAGGGCCTAG)”, the “recombinant barcode read abundance (log10)” value was 0.279.
Regarding “CGAGGGTCTTGGGTTCTAACCTGTTGCCT (site CGAGGGGCTAG)”, the “recombinant barcode read abundance (log10)” value amounted to 0.0907.
On to “CGAGGGTCTTGGGTTCTAACCTGTTGCCT (site CGAGGGTCTAG)”, for which the “recombinant barcode read abundance (log10)” value came out at 1.87.
For “CGAGGGTCTTGGGTTCTAACCTGTTGCTT (site AGAGGGTCTAA)” the value was 0.172; for “CGAGGGTCTTGGGTTCTAACCTGTTGCTT (site CGAGGGTCTAA)”, 1.82.
Regarding “CGAGGGTCTTGGGTTCTAACCTGTTGCTT (site GGAGGGTCTAA)”, the “recombinant barcode read abundance (log10)” value turned out to be 0.413.
In the case of “CGAGGGTCTTGGGTTCTAACCTGTTGCTT (site TGAGGGTCTAA)”, the “recombinant barcode read abundance (log10)” value turned out to be 0.147.
The value for “CGAGGTTCTTGGGTTCTAACCTGTTGCCT (site CGAGGTTCTAG)” was 1.06.
With “CGAGGTTCTTGGGTTCTAACCTGTTGCCT (site CGCGGTTCTAG)”, the “recombinant barcode read abundance (log10)” value is 0.212.
The value for “CGAGTCCCTTGGGTTCTAACCTGTTGCAG (site ATCTAAACTAG)” was 0.137.
As for “CGAGTCCCTTGGGTTCTAACCTGTTGCAG (site CGAGTCCCTCT)”, the “recombinant barcode read abundance (log10)” value was determined as 2.15.
Turning to “CGAGTGTCTTGGGTTCTAACCTGTTGCTA (site CGAGTGTCTTA)”, the “recombinant barcode read abundance (log10)” value stood at 1.96.
Take “CGAGTGTCTTGGGTTCTAACCTGTTGCTA (site GATCACCCTAT)”: the “recombinant barcode read abundance (log10)” value came to 0.0951.
Regarding “CGATCATCTTGGGTTCTAACCTGTTGCCT (site CGATCATCTAG)”, the “recombinant barcode read abundance (log10)” value is 0.103.
For the sequence “CGATCATCTTGGGTTCTAACCTGTTGCCT (site CGCTCATCTAG)”, the “recombinant barcode read abundance (log10)” value was determined as 0.0503.
As for “CGATCATCTTGGGTTCTAACCTGTTGCCT (site CGGTCATCTAG)”, the “recombinant barcode read abundance (log10)” value is 0.173.
On to “CGATCATCTTGGGTTCTAACCTGTTGCCT (site CGTTCATCTAG)”, for which the “recombinant barcode read abundance (log10)” value amounted to 0.0823.
“CGATCCACTTGGGTTCTAACCTGTTGCCT (site AGATCCACTAG)”: the “recombinant barcode read abundance (log10)” value is 0.0256.
On to “CGATCCACTTGGGTTCTAACCTGTTGCCT (site CGATCCACTAG)”, for which the “recombinant barcode read abundance (log10)” value came out at 0.0891.
In the case of “CGATCCACTTGGGTTCTAACCTGTTGCCT (site GGATCCACTAG)”, the “recombinant barcode read abundance (log10)” value stood at 1.56.
Regarding “CGATCCACTTGGGTTCTAACCTGTTGCCT (site TGATCCACTAG)”, the “recombinant barcode read abundance (log10)” value turned out to be 0.0673.
For “CGATCTCCTTGGGTTCTAACCTGTTGCAC (site ACTCACTCTAG)”, the “recombinant barcode read abundance (log10)” value was 0.0376.
The value for “CGATCTCCTTGGGTTCTAACCTGTTGCAC (site CGATCTCCTGT)” was 0.303; that for “CGATGACCTTGGGTTCTAACCTGTTGCAT (site CGATGACCTAT)” was 1.48; that for “CGATGACCTTGGGTTCTAACCTGTTGCAT (site CGATGGCCTAT)” was 0.107.
“CGATGGCCTTGGGTTCTAACCTGTTGCAT (site CGATGACCTAT)”: the “recombinant barcode read abundance (log10)” value turned out to be 0.388.
For “CGATGGCCTTGGGTTCTAACCTGTTGCAT (site CGATGGCCTAT)” the value was 0.433.
With “CGATTAGCTTGGGTTCTAACCTGTTGCCG (site ATTCACACTAC)”, the “recombinant barcode read abundance (log10)” value came to 0.0236.
As to “CGATTAGCTTGGGTTCTAACCTGTTGCCG (site CGATTAGCTCG)”, the “recombinant barcode read abundance (log10)” value was found to be 0.536.
For the sequence “CGATTATCTTGGGTTCTAACCTGTTGCCT (site CGATTAACTAG)”, the “recombinant barcode read abundance (log10)” value turned out to be 0.25.
As to “CGATTATCTTGGGTTCTAACCTGTTGCCT (site CGATTACCTAG)”, the “recombinant barcode read abundance (log10)” value is 0.162.
With “CGATTATCTTGGGTTCTAACCTGTTGCCT (site CGATTAGCTAG)”, the “recombinant barcode read abundance (log10)” value is 0.0752.
As to “CGATTATCTTGGGTTCTAACCTGTTGCCT (site CGATTATCTAG)”, the “recombinant barcode read abundance (log10)” value worked out at 0.0534.
As for “CGCAAGCCTTGGGTTCTAACCTGTTGCAT (site CGCAAGCCTAT)”, the “recombinant barcode read abundance (log10)” value was 0.0608.
The value for “CGCAAGCCTTGGGTTCTAACCTGTTGCAT (site CGTAAGCCTAT)” was 0; that for “CGCAGCCCTTGGGTTCTAACCTGTTGCAT (site CGCAGCCCTAT)” was 0.462; that for “CGCAGCCCTTGGGTTCTAACCTGTTGCAT (site CGGAGCCCTAT)” was 0.0663.
Regarding “CGCAGCTCTTGGGTTCTAACCTGTTGCCT (site CGAAGCTCTAG)”, the “recombinant barcode read abundance (log10)” value was 0.0165.
The value for “CGCAGCTCTTGGGTTCTAACCTGTTGCCT (site CGCAGCTCTAG)” was 0.0301; that for “CGCAGCTCTTGGGTTCTAACCTGTTGCCT (site CGGAGCTCTAG)” was 0.0445.
Take “CGCAGCTCTTGGGTTCTAACCTGTTGCCT (site CGTAGCTCTAG)”: the “recombinant barcode read abundance (log10)” value amounted to 0.511.
